Test results reported in patent publication EP3031808B1, “SALT OF IDELALISIB” (ratiopharm GmbH, priority 2014, dated 2016).
Where two headings read alike, the source gives them in different places.

Legend:
[1] = cited from earlier work
[2] = solubilities of salts of idelalisib in buffers and selected media
[3] = water demin. (pH dep.), 15 min.
[4] = water demin. (pH dep.), 60 min.

Row | Compound | solubility in water ([1]; water at pH 1.2) | solubility in water ([1]; water at pH 7) | solubilities ([2]; 0,01m HCl pH ∼2,2, 15 min.) | solubilities ([2]; 0,01m HCl pH ∼2,2, 60 min.) | solubilities ([2]; 20mM NaOAc pH 4.5, 15 min.) | solubilities ([2]; 20mM NaOAc pH 4.5, 60 min.) | solubilities ([2]; 50mM KH2PO4 pH 6.8, 15 min.) | solubilities ([2]; 50mM KH2PO4 pH 6.8, 60 min.) | solubilities ([2]; 0.1 % TPGS (FaSSIF), 15 min.) | solubilities ([2]; 0.1 % TPGS (FaSSIF), 60 min.) | solubilities ([2]; 2.0% TPGS (FeSSIF), 15 min.) | solubilities ([2]; 2.0% TPGS (FeSSIF), 60 min.) | solubilities [2, 3] | solubilities [2, 4] | solubility compared to the free base of idelalisib ([2]; general statement)
1 | CC[C@H](Nc1ncnc2[nH]cnc12)c1nc2cccc(F)c2c(=O)n1-c1ccccc1 [Base, 5-fluoro-3-phenyl-2-[(1S)-1-(9H-purin-6-ylamino)propyl]quinazolin-4(3H)-one] | soluble | practically insoluble | 0.947 | 1.051 | 0.092 | 0.100 | 0.086 | 0.088 | 0.141 | 0.107 | 1.056 | 1.172 | 0.098 | 0.081 | –
2 | Maleate | – | – | 2.445 | 2.655 | 0.411 | 0.475 | 0.355 | 0.393 | 0.662 | 1.121 | 6.798 | 6.984 | 1.934 | 2.095 | increased
